{
  "source": "patent US9463337B2",
  "about": "“Multifunctional hair color protector” (GALAXY SURFACTANTS LTD., priority 2013, dated 2016)",
  "key": {"[1]": {"assay": "Substantivity (deposition) on hair tresses", "details": "0.5% aqueous solution/dispersion on hair tresses"}, "[2]": {"assay": "Combing force on Diastron tensile tester after shampoo application", "details": "shampoo containing MCBDC (2%), one application, as compared to placebo shampoo"}, "[3]": {"assay": "Hair protection against UV induced damage through rinse-off conditioner (combing force)", "details": "rinse-off conditioner with 2% MCBDC vs placebo conditioner", "method": "Double bleached European hair were shampooed with the placebo shampoo of Example 4 and conditioned according to the following protocol. The details of UV chamber and exposure conditions are given below.\nPlacebo shampoo of Example 4 was applied for 1 minute to European hair and rinsed the tresses with water for one minute 25° C. with controlled finger movements. This was followed by conditioner application for one minute application time, one minute contact time and one and half minute for rinsing off with warm water (40° C.).\nTreated hair tresses were exposed to UV radiation with the help of UV lamp for 48 hours. UV exposed hair tresses were then subjected to combing force evaluation on Diastron tensile tester.\nTwo tresses per treatment were used. The treated tresses were irradiated with UV chamber which is equipped with two tubes emitting UV light in short UV (254 nm) and long UV 315-400 nm) regions. Sankyo Denki G8TS tube with UV output of 2.5 W was used as short UV light source while Sankyo Denki F8T5BLB backlight—blue tube with UV output of 1.4 W was used as long UV light source. Washing and UV exposure was given in the following sequence for 50 h. UV exposed tresses were washed with isopropanol to remove the quaternary followed by combing force measurement on Diastron Tensile Tester (MTT 175)."}, "[4]": {"assay": "Zeta potential, Malvern Zetasizer Nano", "type": "physicochemical", "details": "1% dispersion", "excerpt": "Also the high zeta potential ensures the stability of colloidal dispersions."}, "[5]": {"tested_on": "Staphylococcus aureus ATCC 653", "assay": "Challenge test on aqueous paste (30%)", "type": "cell-based", "details": "30% aqueous paste, 25° C.", "experimental": "(§1) Following strains of Gram positive, Gram negative bacteria and yeast and mold were used for the challenge test. Staphylococcus aureus ATCC 653, Escherichia coli ATCC 8739, Pseudomonas aeruginosa ATCC 15442, Candida albicans ATCC 10231, and Aspergillus niger ATCC 16404.\n(§2) The test is conducted in the six sterile containers each containing a fix equal amount of test sample. Each container was inoculated with a 1% of standardized Inoculum of the microorganism.\n(§3) The initial concentration of the viable microorganism in each test preparation is estimated based on the concentration of microorganism in each of the standardized Inoculum as determined by the plate count method.\n(§4) Each container is incubated at 25° C. The aliquot of sample of each container is removed at appropriate intervals of time 0 day, 24 hrs, 48 hrs, and 7 days, 14 days, 21 days and 28 days."}, "[6]": {"tested_on": "Escherichia coli ATCC 8739", "assay": "Challenge test on aqueous paste (30%)", "type": "cell-based", "details": "30% aqueous paste, 25° C.", "experimental": "as §1, §2, §3, §4"}, "[7]": {"tested_on": "Pseudomonas aeruginosa ATCC 15442", "assay": "Challenge test on aqueous paste (30%)", "type": "cell-based", "details": "30% aqueous paste, 25° C.", "experimental": "as §1, §2, §3, §4"}, "[8]": {"tested_on": "Aspergillus niger ATCC 16404", "assay": "Challenge test on aqueous paste (30%)", "type": "cell-based", "details": "30% aqueous paste, 25° C.", "experimental": "as §1, §2, §3, §4"}, "[9]": {"tested_on": "Candida albicans ATCC 10231", "assay": "Challenge test on aqueous paste (30%)", "type": "cell-based", "details": "30% aqueous paste, 25° C.", "experimental": "as §1, §2, §3, §4"}, "[10]": {"assay": "Hair color protection (anti-fade) through rinse-off conditioner, Hunter L* a* b*", "details": "rinse-off conditioner with MCBDC vs placebo, ten wash/UV cycles, five hours total UV exposure", "method": "They were dyed using L'Oreal's Burgundy color as per the protocol described by the dye manufacturer.\nHair coloring (hair dyeing) process is performed as recommended by the marketed product. The color and the developer were mixed in ratio of 1:1 and shampooed hair tresses were treated with the same. The color and developer mixture was applied uniformly to the hair tresses and covered with the aluminum foil for twenty minutes. After this the hair tresses were washed with warm water. […] The ‘Placebo’ and ‘Treated’ hair tresses were exposed to UV radiation, total exposure of five hours through total to washing cycles comprising, shampooing, conditioning, rinsing and UV exposure of 30 mins at time using the equipment described in Example 5. The fading of color of the sets of hair tresses, Control, Placebo and Treated was measured on the Hunter instrument, Labscan XE spectrophotometer. The total color loss (ΔE) is assessed by the change in L* a* b* scale using the equation ΔE=[(ΔL)^2+(Δa)^2+(Δb)^2]^1/2."}, "[11]": {"assay": "Surface tension of water (surface activity)", "type": "physicochemical"}, "[12]": {"tested_on": "P. aeruginosa, E. coli, S. aureus, Candida albicans and A. niger", "assay": "CTFA challenge test, overall outcome", "type": "cell-based", "details": "30% aqueous paste", "excerpt": "It was challenge tested with both Gram negative, Gram positive bacteria and yeast and mold by the standard challenge test protocol recommended by CTFA. The test organisms used were P. aeruginosa, E. coli, S. aureus, Candida albicans and A. niger.\nas §1, §2, §3, §4"}, "UV absorption of MCBDC": {"assay": "UV absorption of MCBDC", "type": "physicochemical", "excerpt": "MCDBC is obtained as practically odorless white paste and has solids content of 30% (Example 2). The product as such has absorbance (E 1%, 1 cm) of 130 at λ max of 306 nm in ethanol.\nIts molar extinction coefficient c is 28,000 when measured at same λ max\nThe white pasty mass that is practically odorless had E1% 1 cm of 130 at λ max 306 nm in EtOH."}, "[13]": {"assay": "Sensory evaluation of shampooed hair", "details": "shampoo containing 2.0% MCBDC vs base shampoo, panel of 10", "experimental": "Sensory Evaluation of shampooed hair: The subjective evaluation was conducted by the panel of 10. The evaluator scored tresses of the scale of 1 to 2."}, "[14]": {"assay": "Viscosity boosting in SLES/CAPB shampoo formulation", "type": "physicochemical", "experimental": "A typical placebo shampoo base was prepared with sodium lauryl ether sulphate (12%), cocoamidopropyl betaine (4%), EDTA disodium salt (0.1%), preservative (1%, phenoxy ethanol containing four parabens) and rest deionized water. […] All ingredients were mixed using a Silverson homogenizer thoroughly till a uniform homogeneous mixture was formed.\nThe base shampoo based on sodium lauryl ether sulphate (2EO) and cocoamidopropyl betaine was prepared as described in Example 4."}},
  "data": [
    {"compound": "COc1cc(O)c(C(=O)c2ccccc2)cc1S(=O)(=O)O", "note": "[B-4, Benzophenone-4]", "values": [
      {"measurement": "amount deposited on hair (substantivity)", "setting": "[1]", "result": "276 μg/g of hair"}
    ]},
    {"compound": "p-methoxy cinnamidopropyl behenyl dimethyl ammonium chloride [MCBDC]", "values": [
      {"measurement": "reduction in combing force, dry combing", "setting": "[2]", "result": 19.40, "unit": "%"},
      {"measurement": "reduction in combing force, wet combing", "setting": "[2]", "result": 51.08, "unit": "%"},
      {"measurement": "reduction in combing force after UV exposure, dry combing", "setting": "[3]", "result": "about 30%"},
      {"measurement": "reduction in combing force after UV exposure, wet combing", "setting": "[3]", "result": "about 30%"},
      {"measurement": "Zeta potential", "setting": "[4]", "result": "+47 mV"},
      {"measurement": "TVC S. aureus", "setting": "[5]; 0 hr", "result": "3 × 10^6 cfu/gm"},
      {"measurement": "TVC S. aureus", "setting": "[5]; 24 hr", "result": "<10", "unit": "cfu/gm"},
      {"measurement": "TVC S. aureus", "setting": "[5]; 48 hr", "result": "<10", "unit": "cfu/gm"},
      {"measurement": "TVC S. aureus", "setting": "[5]; 7 days", "result": "<10", "unit": "cfu/gm"},
      {"measurement": "TVC S. aureus", "setting": "[5]; 14 days", "result": "<10", "unit": "cfu/gm"},
      {"measurement": "TVC S. aureus", "setting": "[5]; 21 days", "result": "<10", "unit": "cfu/gm"},
      {"measurement": "TVC S. aureus", "setting": "[5]; 28 days", "result": "<10", "unit": "cfu/gm"},
      {"measurement": "TVC E. coli", "setting": "[6]; 0 hr", "result": "0.41 × 10^4 cfu/gm"},
      {"measurement": "TVC E. coli", "setting": "[6]; 24 hr", "result": "<10", "unit": "cfu/gm"},
      {"measurement": "TVC E. coli", "setting": "[6]; 48 hr", "result": "<10", "unit": "cfu/gm"},
      {"measurement": "TVC E. coli", "setting": "[6]; 7 days", "result": "<10", "unit": "cfu/gm"},
      {"measurement": "TVC E. coli", "setting": "[6]; 14 days", "result": "<10", "unit": "cfu/gm"},
      {"measurement": "TVC E. coli", "setting": "[6]; 21 days", "result": "<10", "unit": "cfu/gm"},
      {"measurement": "TVC E. coli", "setting": "[6]; 28 days", "result": "<10", "unit": "cfu/gm"},
      {"measurement": "TVC Ps. Aeruginosa", "setting": "[7]; 0 hr", "result": "0.43 × 10^5 cfu/gm"},
      {"measurement": "TVC Ps. Aeruginosa", "setting": "[7]; 24 hr", "result": "4.16 × 10^4 cfu/gm"},
      {"measurement": "TVC Ps. Aeruginosa", "setting": "[7]; 48 hr", "result": "4.16 × 10^4 cfu/gm"},
      {"measurement": "TVC Ps. Aeruginosa", "setting": "[7]; 7 days", "result": "<10", "unit": "cfu/gm"},
      {"measurement": "TVC Ps. Aeruginosa", "setting": "[7]; 14 days", "result": "<10", "unit": "cfu/gm"},
      {"measurement": "TVC Ps. Aeruginosa", "setting": "[7]; 21 days", "result": "<10", "unit": "cfu/gm"},
      {"measurement": "TVC Ps. Aeruginosa", "setting": "[7]; 28 days", "result": "<10", "unit": "cfu/gm"},
      {"measurement": "TVC Asp. niger", "setting": "[8]; 0 hr", "result": "0.78 × 10^5 cfu/gm"},
      {"measurement": "TVC Asp. niger", "setting": "[8]; 24 hr", "result": "1.16 × 10^1 cfu/gm"},
      {"measurement": "TVC Asp. niger", "setting": "[8]; 48 hr", "result": "2.03 × 10^2 cfu/gm"},
      {"measurement": "TVC Asp. niger", "setting": "[8]; 7 days", "result": "<10", "unit": "cfu/gm"},
      {"measurement": "TVC Asp. niger", "setting": "[8]; 14 days", "result": "<10", "unit": "cfu/gm"},
      {"measurement": "TVC Asp. niger", "setting": "[8]; 21 days", "result": "<10", "unit": "cfu/gm"},
      {"measurement": "TVC Asp. niger", "setting": "[8]; 28 days", "result": "<10", "unit": "cfu/gm"},
      {"measurement": "TVC C. albicans", "setting": "[9]; 0 hr", "result": "0.6 × 10^3 cfu/gm"},
      {"measurement": "TVC C. albicans", "setting": "[9]; 24 hr", "result": "<10", "unit": "cfu/gm"},
      {"measurement": "TVC C. albicans", "setting": "[9]; 48 hr", "result": "<10", "unit": "cfu/gm"},
      {"measurement": "TVC C. albicans", "setting": "[9]; 7 days", "result": "<10", "unit": "cfu/gm"},
      {"measurement": "TVC C. albicans", "setting": "[9]; 14 days", "result": "<10", "unit": "cfu/gm"},
      {"measurement": "TVC C. albicans", "setting": "[9]; 21 days", "result": "<10", "unit": "cfu/gm"},
      {"measurement": "TVC C. albicans", "setting": "[9]; 28 days", "result": "<10", "unit": "cfu/gm"},
      {"measurement": "total color loss (ΔE)", "setting": "[10]", "result": "Lower ΔE"},
      {"measurement": "Drop in surface tension of water", "setting": "[11]", "result": 35, "unit": "dynes"},
      {"measurement": "surface tension of water", "setting": "[11]; at 1.0%, 30° C., reduced from 72 Mn/m", "result": 35, "unit": "Mn/m"},
      {"measurement": "preservation outcome of challenge test", "setting": "[12]", "result": "self preserving"},
      {"measurement": "molar extinction coefficient", "setting": "UV absorption of MCBDC; at λ max 306 nm", "result": "28,000"},
      {"measurement": "absorbance (E 1%, 1 cm)", "setting": "UV absorption of MCBDC; λ max 306 nm in ethanol, product as such, paste with solids content 30%", "result": 130},
      {"measurement": "sensorial evaluation", "setting": "[13]", "result": "significant enhancement of sensory attributes"},
      {"measurement": "change in viscosity of shampoo formulation", "setting": "[14]; MCBDC 0.5% to 2.0% in base (3000 cps, salt 0.7%), Brookfield spindle No 4, 12 rpm, 25° C.", "result": "linear increase in viscosity"},
      {"measurement": "viscosity of shampoo", "setting": "[14]; shampoo with 2% MCBDC, placebo shampoo 3000 cps", "result": "18,000 cps"}
    ]}
  ]
}
